We go through one molecule from patent publication US20190060298A1, “NEW DRUG FOR THE TREATMENT AND/OR PREVENTION OF DEPRESSIVE DISORDERS” (SORBONNE UNIVERSITE, priority 2013, published 2019).

SMILES strings stand for the structures.

One test concerns lipid peroxidation (MDA). In words: Lipid peroxidation (TBARS/MDA) in hippocampus. It is filed as in vivo, Sprague-Dawley rats. The conditions noted are these: V rats; 288 μmol/kg/day, 15 days from D11; D31. The protocol:
(§1) The right hippocampus was homogenized in ice-cold buffer (Tris-HCl 50 mM pH 7.5, 150 mM NaCl, 1 mM EDTA) and used for TBARS and glutathione peroxidase (GPx) assays.
(§2) For the TBARS assay, protease inhibitors (50 μl/ml), DOC (1%), SDS (0.1%) and Triton® X-100 (0.5%) were added immediately in ice-cold buffer. For the GPx assay, 0.1 M dithiothreitol was added immediately in ice-cold buffer. The homogenates were centrifuged and the supernatants were retained for analysis. Lipid peroxidation was assessed by measuring TBARS formation with a commercial assay kit (Cayman Chemical, Ann Arbor, Mich., USA), in accordance with the manufacturer's instructions. TBARS concentration was calculated from an MDA standard curve and normalized. Total GPx activity in the homogenate was measured in accordance with the kit manufacturer's instructions (Cayman Chemical, Ann Arbor, Mich., USA). GPx specific activity is expressed as nmoles of NADPH consumed per minute per mg of hippocampal tissue. No difference in hippocampal weight was observed between defeated, vulnerable, non-vulnerable and control animals.
(§3) Tempol (4-hydroxy-2,2,6,6-tetramethylpiperidine 1-oxyl), which was administered at a dose of 288 μmol/kg/day [Sigma-Aldrich, St Louis, Mo., USA]), was dissolved in distilled water and delivered via ALZET osmotic mini-pumps (2002, Charles River Laboratories, France). […]

Test [1] has as its system glutathione peroxidase (GPx). In words: Glutathione peroxidase activity in hippocampus. As to conditions: 288 μmol/kg/day, 15 days from D11; D31. It is filed as in vivo, Sprague-Dawley rats. As for the experimental part:
as §1, §2, §3

Another test relates to CA3 neurons. In words: Golgi staining, hippocampal CA3 neuron morphology. It is filed as in vivo, Sprague-Dawley rats. As to conditions: 288 μmol/kg/day, 15 days. The protocol:
At D11 and D31, unperfused brains were rapidly removed and processed with the FD Rapid Golgistain kit (FD NeuroTechnologies), as previously described by Blugeot et al. (2011). Histological quantification: for each rat, the total dendrite length of apical CA3 dendritric branches was measured for selected neurons with AxioVision 4.7 software and a Zeiss Imager M1 microscope. 3-5 hippocampal neurons per rat are selected for measurement by an investigator blind to the origin of the experimental animal. Dendritic tracing was quantified by Sholl analysis (Sholl, 1953). The number of intersections between the dendrites and the concentric circles was counted and plotted as a function of the distance from the soma. The density of dendritic spines was estimated by counting the number of apical dendritic spines in 3-4 segments of 15 μm located in the stratum radiatum, at 1000× resolution. Spine density was expressed as the number of spines per 15 μm length of apical dendrite.
Tempol (4-hydroxy-2,2,6,6-tetramethylpiperidine 1-oxyl), which was administered at a dose of 288 μmol/kg/day [Sigma-Aldrich, St Louis, Mo., USA]), was dissolved in distilled water and delivered via ALZET osmotic mini-pumps (2002, Charles River Laboratories, France). Tempol- or distilled water-filled pumps were implanted subcutaneously on the back of intruder rats under light anesthesia with isofluorane, 11 days after completion of the social-defeat procedure (D11), and were left in place for 15 days.

Another test concerns Sprague-Dawley rats. Nature of the test: Depression-like profile after sensitization paradigm (CSD then CMS). The format is in vivo. The conditions noted are these: TEMPOL administrated before CMS. The protocol:
Sprague-Dawley rats were subjected to chronic social defeat (CSD) and then, four weeks later, to three weeks of chronic mild stress (SSP rats). The chronic mild stress protocol (CMS) was performed as previously described (see Blugeot et al., 2011). The control rats were control intruders (not subjected to CSD) not exposed to the three weeks of CMS (C rats).
The CMS protocol is derived from that described by Willner et al. (1992). Briefly, various mild stresses were applied every day, over a period of three weeks. Briefly, from Monday to Friday, every morning, animals were placed in a small cage (10×16×15 cm) for 1 hour. In the afternoon, they were shaken for 10 min (Monday and Thursday), placed in a small cage containing water (2 cm high, Tuesday) or placed in another cage for 4 hours (Wednesday and Friday). Every night, the cage was inclined (45°, Tuesday and Thursday) or contained wet bedding (Wednesday and Friday). On Saturday and Sunday, the rats were subjected to a reversed dark/light cycle for 30 min, every three hours.
as §3

The subject of the next test is BDNF. In words: Serum BDNF assay. It is filed as in vivo, Sprague-Dawley rats. As to conditions: vulnerable animals vs vulnerable animals treated with vehicle. As for the experimental part: Blood samples (200 μl) were collected from conscious rats at various time points (D-4, D5, D11, D31 at midday). These samples were taken from the tail vein and were collected in Eppendorf tubes. The samples were centrifuged to separate off the serum, which was stored at −20° C. until BDNF analysis. BDNF concentrations were determined at a dilution of 1:25, with a commercial BDNF assay (Promega Corporation), in 96-well plates (Corning Costar® EIA plate), according to the manufacturer's instructions.
Another serum BDNF was carried out. Blood samples (200 μl) of awake rats were collected at different time-points (D-4, D9, D35, D57 at midday) from the vein of the tail into eppendorf tubes. After centrifugation, serum was separated and stored at −20° C. until analysis for BDNF. BDNF concentrations were determined at dilution of 1:25 with a commercial BDNF assay (Promega Corporation), in 96-well plates (Corning Costar® EIA plate), according to the manufacturer's instructions.
as §3

A further test has as its system CA3 pyramidal cells. In words: CA3 dendritic architecture in Nrf2-null mice. The format is in vivo. As to conditions: Tempol 288 μmol/kg/day, osmotic mini-pump, 4 weeks. As for the experimental part: Nrf2-null mice were backcrossed onto the C57BL/6 J background for seven generations using alternating male and female stock mice from the CNRS TAAM UPS44 (Orléans). The resulting wild-type (Nrf2+/+) and Nrf2−/− mice were genotyped and only male mice at 6 weeks old at the beginning of the experiments were used. The level of oxidative stress in mice was first evaluated through the measure of lipid peroxidation. Lipid peroxidation was assessed by measuring TBARS formation with a commercial assay kit (Cayman Chemical, Ann Arbor, Mich., USA), in accordance with the manufacturer's instructions. TBARS concentration was calculated from an MDA standard curve and normalized.
To examine the depression-like phenotype of Nrf2-null mice, the helplessness behaviour, anhedonia and HPA hyperactivity (corticosterone, and adrenal gland weight) were assessed before and after a chronic mild stress (CMS) protocol. The neuroanatomical morphology of hippocampus in mice was estimated using Golgi Staining procedure. Tempol (4-hydroxy-2,2,6,6-tetramethylpiperidine 1-oxyl, Sigma-Aldrich, St Louis, Mo., USA), which was administered at a dose of 288 μmol/kg/day (Wilcox, 2010), was dissolved in distilled water and delivered via ALZET osmotic mini-pumps (1004, Charles River Laboratories, France). […]

For `CC1(C)CC(O)CC(C)(C)N1[O]` [TEMPOL, 4-hydroxy-2,2,6,6-tetramethylpiperidin-1-oxyl], in the test on lipid peroxidation (MDA), the “lipid peroxidation (MDA)” value is reported as “lack of”. For the same molecule, the “glutathione peroxidase (GPx) activity” value in test [1] is “mild effect”. In the test on CA3 neurons (NV and V animals, D31), the “dendritic trees (total apical dendrite length of CA3 neurons)” value is reported as “fully restored” and the “spine density (CA3 dendritic spines)” value is reported as “fully restored”. The “total length of hippocampal neurons” value in the test on CA3 neurons (non-vulnerable and control animals vs vehicle-treated) is “tends to increase”. Further, the “depression-like profile generated by the CMS” value with Sprague-Dawley rats is reported as “abolished”. The “serum BDNF levels” value in the test on BDNF was “induced the recovery of serum BDNF levels”. For the same molecule, the “dendritic retraction in CA3 pyramidal cells” value with CA3 pyramidal cells is on record as “prevented”.
